Legend:
[1] = biological target: 3',5'-cyclic-AMP phosphodiesterase 4B (Homo sapiens) (UniProt Q07343); test: Inhibition of recombinant His-tagged PDE4B expressed in Sf9 cells using cAMP as substrate at 30 uM preincubated for 15 mins measured after 1 hr by multilabel plate reader
[2] = biological target: 3',5'-cyclic-AMP phosphodiesterase 4B (Homo sapiens) (UniProt Q07343); test: Inhibition of recombinant His-tagged PDE4B expressed in Sf9 cells using cAMP as substrate at 1 uM preincubated for 15 mins measured after 1 hr by multilabel plate reader
RAW264.7 [3] = test: Antiinflammatory activity in mouse RAW264.7 cells assessed as inhibition of LPS-induced TNFalpha challenge at 10 uM preincubated for 30 mins before LPS challenge by ELISA; type: functional
[4] = biological target: 3',5'-cyclic-AMP phosphodiesterase 4B (Homo sapiens) (UniProt Q07343); test: Inhibition of recombinant His-tagged PDE4B expressed in Sf9 cells using cAMP as substrate at 10 uM preincubated for 15 mins measured after 1 hr by multilabel plate reader
[5] = biological target: 3',5'-cyclic-AMP phosphodiesterase 4B (Homo sapiens) (UniProt Q07343); test: Inhibition of recombinant His-tagged PDE4B expressed in Sf9 cells using cAMP as substrate at 0.3 uM preincubated for 15 mins measured after 1 hr by multilabel plate reader
[6] = biological target: 3',5'-cyclic-AMP phosphodiesterase 4B (Homo sapiens) (UniProt Q07343); test: Inhibition of recombinant His-tagged PDE4B expressed in Sf9 cells using cAMP as substrate at 3 uM preincubated for 15 mins measured after 1 hr by multilabel plate reader
RAW264.7 [7] = test: Antiinflammatory activity in mouse RAW264.7 cells assessed as inhibition of LPS-induced TNFalpha challenge at 30 uM preincubated for 30 mins before LPS challenge by ELISA; type: functional

Chain of 3',5'-cyclic-AMP phosphodiesterase 4B (Homo sapiens) (Q07343 whole entry): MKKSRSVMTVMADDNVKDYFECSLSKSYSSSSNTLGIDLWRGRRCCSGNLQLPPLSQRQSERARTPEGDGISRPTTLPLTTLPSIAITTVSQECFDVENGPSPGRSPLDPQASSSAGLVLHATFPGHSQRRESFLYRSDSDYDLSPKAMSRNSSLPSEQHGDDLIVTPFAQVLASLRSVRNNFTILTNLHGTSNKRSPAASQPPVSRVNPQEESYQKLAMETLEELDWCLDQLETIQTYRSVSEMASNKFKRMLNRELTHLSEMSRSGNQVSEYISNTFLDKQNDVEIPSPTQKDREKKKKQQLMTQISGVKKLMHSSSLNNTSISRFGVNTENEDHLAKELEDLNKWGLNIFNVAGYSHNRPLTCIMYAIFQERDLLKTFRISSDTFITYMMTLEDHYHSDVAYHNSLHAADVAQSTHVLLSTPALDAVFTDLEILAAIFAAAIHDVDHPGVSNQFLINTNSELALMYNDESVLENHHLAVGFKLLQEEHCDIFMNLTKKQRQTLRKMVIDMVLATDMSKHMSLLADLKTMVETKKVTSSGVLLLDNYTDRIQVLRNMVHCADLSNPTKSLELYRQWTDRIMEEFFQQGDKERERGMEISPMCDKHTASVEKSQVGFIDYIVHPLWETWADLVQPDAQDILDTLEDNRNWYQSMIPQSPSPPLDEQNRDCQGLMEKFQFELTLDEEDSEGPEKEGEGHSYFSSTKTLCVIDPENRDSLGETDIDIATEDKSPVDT

`CC1=CC(C)(C)N(CC#Cc2cccc([N+](=O)[O-])c2)c2cc(Oc3ccccc3)c(NS(C)(=O)=O)cc21` was tested, and the inhibition [1] was 41.6%.

For `O=Cc1cc2ccccc2n(CC#Cc2ccc([N+](=O)[O-])cc2)c1=O`, the inhibition [1] was 4.15%.

`O=Cc1cc2ccccc2n(CC#Cc2ccc(Cl)cc2)c1=O` showed an inhibition [1] of 26.5%.

For `O=Cc1cc2ccccc2n(CC#Cc2ccccc2Cl)c1=O`, the inhibition [1] was 54.4%.

With `CC1=CC(C)(C)N(CC#Cc2ccccc2[N+](=O)[O-])c2cc(Oc3ccccc3)c(NS(C)(=O)=O)cc21` the inhibition [1] was 37.4%.

`CC1=CC(C)(C)N(CC#Cc2ccc([N+](=O)[O-])cc2)c2cc(Oc3ccccc3)c(NS(C)(=O)=O)cc21` gave an inhibition [1] of 35.1%.

`COc1ccc(C#CCn2c(=O)c(C=O)cc3ccccc32)cc1` was tested, and the inhibition [1] was 22.6%.

`COC(=O)c1ccccc1C#CCN1c2cc(Oc3ccccc3)c(NS(C)(=O)=O)cc2C(C)=CC1(C)C` was tested, and the inhibition [2] was 11%, the inhibition at 10 µM (RAW264.7 [3]) was 35% and the inhibition [1] was 33.1%. The inhibition [4] was 23%, the inhibition [5] was 10% and the inhibition [6] was 16%. It also gave an inhibition at 30 µM (RAW264.7 [7]) of 47%.

`CC1=CC(C)(C)N(CC#Cc2ccccc2Cl)c2cc(Oc3ccccc3)c(NS(C)(=O)=O)cc21` gave an inhibition [1] of 40.3%.

`Cc1ccccc1C#CCn1c(=O)c(C=O)cc2ccccc21` was tested, and the inhibition [1] was 45.5%.

`O=Cc1cc2ccccc2n(CC#Cc2cccc([N+](=O)[O-])c2)c1=O` gave an inhibition [1] of 22.6%.

From ChEMBL document CHEMBL1914439, “Novel 1-alkynyl substituted 1,2-dihydroquinoline derivatives from nimesulide (and their 2-oxo analogues): a new strategy to identify inhibitors of PDE4B” (2011)
